The NIST ThermoML archive (doi:10.1016/j.fluid.2016.08.035)
Numbers after ± are expanded uncertainties.

Assays:
[1] = xn = mol fraction of the nth substance listed; conditions: 101 kPa, Liquid; for viscosity: Falling or rolling sphere viscometry; for speed of sound: Sing-around technique in a fixed-path interferometer; for mass density: Vibrating tube method
[2] = molar heat capacity at constant pressure; xn = mol fraction of the nth substance listed; conditions: 101 kPa, Liquid, DSC

CC12CCC(CC1)C(C)(C)O2 [1,3,3-trimethyl-2-oxabicyclo[2.2.2]octane] + CCCCCC
Conditions	mass density, [1] [kg/m3]	molar heat capacity at constant pressure, [2] [J/K/mol]	speed of sound, [1] [m/s]	viscosity, [1] [mPa·s]
278.15 K, x1 = 0.1043	708.22 ± 0.25	194.63 ± 7.5	1188.8 ± 1.5	0.47 ± 0.04
278.15 K, x1 = 0.2069	740.59 ± 0.25	200.97 ± 7.8	1208.4 ± 1.5	0.57 ± 0.04
278.15 K, x1 = 0.2965	767.3 ± 0.25	206.77 ± 8	1225.8 ± 1.5	0.68 ± 0.04
278.15 K, x1 = 0.4005	796.7 ± 0.24	213.53 ± 8.3	1246.1 ± 1.5	0.83 ± 0.04
278.15 K, x1 = 0.4991	823.02 ± 0.24	220.18 ± 8.5	1265.3 ± 1.5	1.03 ± 0.04
278.15 K, x1 = 0.5999	848.56 ± 0.24	227.2 ± 8.8	1284.8 ± 1.5	1.28 ± 0.04
278.15 K, x1 = 0.6995	872.46 ± 0.24	234.25 ± 9.1	1304 ± 1.5	1.66 ± 0.04
278.15 K, x1 = 0.8005	895.28 ± 0.23	241.41 ± 9.3	1322.8 ± 1.5	2.19 ± 0.04
278.15 K, x1 = 0.8985	916.39 ± 0.23	248.64 ± 9.6	1341 ± 1.5	2.93 ± 0.05
278.15 K, x1 = 1	937.25 ± 0.23	256.14 ± 9.9	1359.6 ± 1.6	4.21 ± 0.05
298.15 K, x1 = 0.1043	690.43 ± 0.25	201.78 ± 7.8	1099.9 ± 1.5	0.39 ± 0.04
298.15 K, x1 = 0.2069	722.9 ± 0.25	208.67 ± 8.1	1121.2 ± 1.5	0.46 ± 0.04
298.15 K, x1 = 0.2965	749.7 ± 0.25	214.95 ± 8.3	1139.8 ± 1.5	0.53 ± 0.04
298.15 K, x1 = 0.4005	779.19 ± 0.24	222.29 ± 8.6	1161.4 ± 1.5	0.64 ± 0.04
298.15 K, x1 = 0.4991	805.59 ± 0.24	229.41 ± 8.9	1181.5 ± 1.5	0.77 ± 0.04
298.15 K, x1 = 0.5999	831.19 ± 0.24	236.9 ± 9.2	1201.8 ± 1.5	0.93 ± 0.04
298.15 K, x1 = 0.6995	855.13 ± 0.24	244.43 ± 9.5	1221.6 ± 1.5	1.16 ± 0.04
298.15 K, x1 = 0.8005	878 ± 0.24	252.03 ± 9.8	1241.3 ± 1.5	1.48 ± 0.04
298.15 K, x1 = 0.8985	899.14 ± 0.23	259.73 ± 10	1260 ± 1.5	1.9 ± 0.04
298.15 K, x1 = 1	920.04 ± 0.23	267.69 ± 10	1278.4 ± 1.5	2.6 ± 0.05
318.15 K, x1 = 0.1043	672.12 ± 0.26	209.13 ± 8.1	1012.6 ± 1.5	0.34 ± 0.04
318.15 K, x1 = 0.2069	704.78 ± 0.25	216.45 ± 8.4	1035.9 ± 1.5	0.38 ± 0.04
318.15 K, x1 = 0.2965	731.74 ± 0.25	223.08 ± 8.6	1055.9 ± 1.5	0.43 ± 0.04
318.15 K, x1 = 0.4005	761.37 ± 0.25	230.81 ± 8.9	1078.8 ± 1.5	0.51 ± 0.04
318.15 K, x1 = 0.4991	787.91 ± 0.24	238.36 ± 9.2	1100.2 ± 1.5	0.6 ± 0.04
318.15 K, x1 = 0.5999	813.62 ± 0.24	246.29 ± 9.5	1121.5 ± 1.5	0.71 ± 0.04
318.15 K, x1 = 0.6995	837.67 ± 0.24	254.22 ± 9.8	1142.2 ± 1.5	0.86 ± 0.04
318.15 K, x1 = 0.8005	860.63 ± 0.24	262.24 ± 10	1162.8 ± 1.5	1.06 ± 0.04
318.15 K, x1 = 0.8985	881.86 ± 0.23	270.35 ± 10	1182.4 ± 1.5	1.32 ± 0.04
318.15 K, x1 = 1	902.84 ± 0.23	278.65 ± 11	1201 ± 1.5	1.73 ± 0.04
338.15 K, x1 = 0.1043	653.14 ± 0.26	216.81 ± 8.4	926.7 ± 1.5	0.3 ± 0.04
338.15 K, x1 = 0.2069	685.99 ± 0.25	224.63 ± 8.7	952.68 ± 1.5	0.34 ± 0.04
338.15 K, x1 = 0.2965	713.31 ± 0.25	231.59 ± 9	974.13 ± 1.5	0.38 ± 0.04
338.15 K, x1 = 0.4005	743.17 ± 0.25	239.8 ± 9.3	998.9 ± 1.5	0.43 ± 0.04
338.15 K, x1 = 0.4991	769.91 ± 0.24	247.71 ± 9.6	1021.5 ± 1.5	0.49 ± 0.04
338.15 K, x1 = 0.5999	795.8 ± 0.24	256.09 ± 9.9	1044.1 ± 1.5	0.57 ± 0.04
338.15 K, x1 = 0.6995	819.99 ± 0.24	264.46 ± 10	1065.7 ± 1.5	0.68 ± 0.04
338.15 K, x1 = 0.8005	843.1 ± 0.24	272.99 ± 11	1087 ± 1.5	0.82 ± 0.04
338.15 K, x1 = 0.8985	864.46 ± 0.24	281.61 ± 11	1107.2 ± 1.5	0.99 ± 0.04
338.15 K, x1 = 1	885.57 ± 0.23	290.33 ± 11	1126.7 ± 1.5	1.27 ± 0.04

CC12CCC(CC1)C(C)(C)O2 [1,3,3-trimethyl-2-oxabicyclo[2.2.2]octane] + CCCCCCCC
Conditions	mass density, [1] [kg/m3]	molar heat capacity at constant pressure, [2] [J/K/mol]	speed of sound, [1] [m/s]	viscosity, [1] [mPa·s]
278.15 K, x1 = 0.1046	738.47 ± 0.17	246.2 ± 9.5	1263.8 ± 1.3	0.77 ± 0.04
278.15 K, x1 = 0.199	759.76 ± 0.17	246.45 ± 9.5	1270.8 ± 1.3	0.87 ± 0.04
278.15 K, x1 = 0.2987	782.16 ± 0.17	246.89 ± 9.6	1279.1 ± 1.3	1 ± 0.04
278.15 K, x1 = 0.4008	805.03 ± 0.18	247.59 ± 9.6	1288.5 ± 1.4	1.17 ± 0.04
278.15 K, x1 = 0.4955	826.13 ± 0.18	248.46 ± 9.6	1297.8 ± 1.4	1.36 ± 0.04
278.15 K, x1 = 0.5939	847.98 ± 0.19	249.62 ± 9.7	1308.4 ± 1.4	1.62 ± 0.04
278.15 K, x1 = 0.6971	870.82 ± 0.19	250.95 ± 9.7	1320.1 ± 1.4	1.99 ± 0.04
278.15 K, x1 = 0.7985	893.16 ± 0.2	252.64 ± 9.8	1332.5 ± 1.5	2.49 ± 0.05
278.15 K, x1 = 0.8939	914.06 ± 0.22	254.3 ± 9.8	1344.9 ± 1.5	3.14 ± 0.05
278.15 K, x1 = 1	937.25 ± 0.23	256.14 ± 9.9	1359.6 ± 1.6	4.21 ± 0.05
298.15 K, x1 = 0.1046	722.35 ± 0.18	254.53 ± 9.9	1180.9 ± 1.3	0.6 ± 0.04
298.15 K, x1 = 0.199	743.56 ± 0.18	255.32 ± 9.9	1188.5 ± 1.3	0.66 ± 0.04
298.15 K, x1 = 0.2987	765.86 ± 0.18	256.22 ± 9.9	1197.5 ± 1.3	0.75 ± 0.04
298.15 K, x1 = 0.4008	788.62 ± 0.18	257.36 ± 10	1207.3 ± 1.4	0.86 ± 0.04
298.15 K, x1 = 0.4955	809.62 ± 0.18	258.59 ± 10	1216.9 ± 1.4	0.98 ± 0.04
298.15 K, x1 = 0.5939	831.35 ± 0.19	260.07 ± 10	1227.7 ± 1.4	1.14 ± 0.04
298.15 K, x1 = 0.6971	854.05 ± 0.2	261.75 ± 10	1239.8 ± 1.4	1.37 ± 0.04
298.15 K, x1 = 0.7985	876.24 ± 0.21	263.66 ± 10	1252.4 ± 1.5	1.65 ± 0.04
298.15 K, x1 = 0.8939	897.03 ± 0.22	265.57 ± 10	1264.9 ± 1.5	2.02 ± 0.04
298.15 K, x1 = 1	920.04 ± 0.23	267.69 ± 10	1278.4 ± 1.5	2.6 ± 0.05
318.15 K, x1 = 0.1046	705.93 ± 0.18	263.19 ± 10	1099.7 ± 1.3	0.48 ± 0.04
318.15 K, x1 = 0.199	727.08 ± 0.18	264.31 ± 10	1108.1 ± 1.3	0.53 ± 0.04
318.15 K, x1 = 0.2987	749.32 ± 0.18	265.53 ± 10	1117.9 ± 1.3	0.58 ± 0.04
318.15 K, x1 = 0.4008	772.01 ± 0.18	267 ± 10	1128.3 ± 1.3	0.66 ± 0.04
318.15 K, x1 = 0.4955	792.93 ± 0.19	268.51 ± 10	1138.3 ± 1.4	0.74 ± 0.04
318.15 K, x1 = 0.5939	814.56 ± 0.19	270.26 ± 10	1149.5 ± 1.4	0.85 ± 0.04
318.15 K, x1 = 0.6971	837.17 ± 0.2	272.14 ± 11	1162.3 ± 1.4	1 ± 0.04
318.15 K, x1 = 0.7985	859.26 ± 0.21	274.24 ± 11	1175.6 ± 1.5	1.18 ± 0.04
318.15 K, x1 = 0.8939	879.92 ± 0.22	276.39 ± 11	1188.3 ± 1.5	1.4 ± 0.04
318.15 K, x1 = 1	902.84 ± 0.23	278.65 ± 11	1201 ± 1.5	1.73 ± 0.04
338.15 K, x1 = 0.1046	689.16 ± 0.19	272.35 ± 11	1020.2 ± 1.2	0.41 ± 0.04
338.15 K, x1 = 0.199	710.27 ± 0.19	273.81 ± 11	1029.6 ± 1.3	0.44 ± 0.04
338.15 K, x1 = 0.2987	732.46 ± 0.19	275.37 ± 11	1040.3 ± 1.3	0.48 ± 0.04
338.15 K, x1 = 0.4008	755.1 ± 0.19	277.18 ± 11	1051.6 ± 1.3	0.54 ± 0.04
338.15 K, x1 = 0.4955	775.96 ± 0.19	278.93 ± 11	1062.3 ± 1.4	0.6 ± 0.04
338.15 K, x1 = 0.5939	797.55 ± 0.19	280.96 ± 11	1073.8 ± 1.4	0.68 ± 0.04
338.15 K, x1 = 0.6971	820.1 ± 0.2	283.13 ± 11	1087.4 ± 1.4	0.78 ± 0.04
338.15 K, x1 = 0.7985	842.12 ± 0.21	285.45 ± 11	1101.4 ± 1.4	0.9 ± 0.04
338.15 K, x1 = 0.8939	862.72 ± 0.22	287.81 ± 11	1114.5 ± 1.5	1.05 ± 0.04
338.15 K, x1 = 1	885.57 ± 0.23	290.33 ± 11	1126.7 ± 1.5	1.27 ± 0.04
